Test results taken from ChEMBL document CHEMBL1126778, “Adenosine A1 antagonists. 3. Structure-activity relationships on amelioration against scopolamine- or N6-((R)-phenylisopropyl)adenosine-induced cognitive disturbance” (J Med Chem, 1993).

Columns and labels:
[1] = test system: Mus musculus; assay: Retention time in (R)-PIA) induced avoidance test (performed in mice) for antagonistic activity after peroral administration of 5 mg/kg; assay type: functional, organism-based; parameters: dose 5 mg/kg
[2] = test system: Mus musculus; assay: Retention time in (R)-PIA) induced avoidance test (performed in mice) for antagonistic activity after peroral administration of 0.08 mg/kg; assay type: functional, organism-based; parameters: dose 0.08 mg/kg
[3] = test system: Mus musculus; assay: Retention time in (R)-PIA) induced avoidance test (performed in mice) for antagonistic activity after peroral administration of 0.31 mg/kg; assay type: functional, organism-based; parameters: dose 0.31 mg/kg
[4] = test system: Mus musculus; assay: Retention time in (R)-PIA) induced avoidance test (performed in mice) for antagonistic activity after peroral administration of 1.25 mg/kg; assay type: functional, organism-based; parameters: dose 1.25 mg/kg
[5] = test system: Rattus norvegicus; assay: Retention time in Scopolamine induced avoidance test (performed in rat) for antagonistic activity after peroral administration of 0.08 mg/kg; assay type: functional, organism-based; parameters: dose 0.08 mg/kg
[6] = test system: Rattus norvegicus; assay: Retention time in Scopolamine induced avoidance test (performed in rat) for antagonistic activity after p.o. administration of 0.31 mg/kg; assay type: functional, organism-based; parameters: dose 0.31 mg/kg
[7] = test system: Rattus norvegicus; assay: Retention time in Scopolamine induced avoidance test (performed in rat) for antagonistic activity after peroral administration of 1.25 mg/kg; assay type: functional, organism-based; parameters: dose 1.25 mg/kg
[8] = test system: Rattus norvegicus; assay: Retention time in Scopolamine induced avoidance test (performed in rat) for antagonistic activity after peroral administration of 20 mg/kg; assay type: functional, organism-based; parameters: dose 20 mg/kg
[9] = test system: Mus musculus; assay: Acquisition time in (R)-PIA) induced avoidance test (performed in mice) for antagonistic activity after peroral administration of 0.08 mg/kg; assay type: functional; conditions: route oral
[10] = test system: Mus musculus; assay: Acquisition time in (R)-PIA) induced avoidance test (performed in mice) for antagonistic activity after p.o. administration of 0.31 mg/kg; assay type: functional; conditions: route oral
[11] = test system: Mus musculus; assay: Acquisition time in (R)-PIA) induced avoidance test (performed in mice) for antagonistic activity after p.o. administration of 1.25 mg/kg; assay type: functional; conditions: route oral
[12] = test system: Mus musculus; assay: Retention time in (R)-PIA) induced avoidance test (performed in mice) for antagonistic activity after p.o. administration of 1.25 mg/kg; assay type: functional, organism-based; parameters: dose 1.25 mg/kg
[13] = test system: Mus musculus; assay: etention time in (R)-PIA) induced avoidance test (performed in mice) for antagonistic activity after peroral administration of 0.31 mg/kg; assay type: functional, organism-based; parameters: dose 0.31 mg/kg
[14] = test system: Rattus norvegicus; assay: Acquisition time in Scopolamine induced avoidance test (performed in rat) for antagonistic activity after peroral administration of 1.25 mg/kg; assay type: functional; conditions: route oral
[15] = test system: Rattus norvegicus; assay: Acquisition time in Scopolamine induced avoidance test (performed in rat) for antagonistic activity after peroral administration of 20 mg/kg; assay type: functional; conditions: route oral
[16] = test system: Rattus norvegicus; assay: Acquisition time in Scopolamine induced avoidance test (performed in rat) for antagonistic activity after p.o. administration of 0.08 mg/kg; assay type: functional; conditions: route oral
[17] = test system: Rattus norvegicus; assay: Acquisition time in Scopolamine induced avoidance test (performed in rat) for antagonistic activity after p.o. administration of 0.31 mg/kg; assay type: functional; conditions: route oral
[18] = test system: Rattus norvegicus; assay: Acquisition time in Scopolamine induced avoidance test (performed in rat) for antagonistic activity after p.o. administration of 5 mg/kg; assay type: functional; conditions: route oral
[19] = test system: Rattus norvegicus; assay: Retention time in Scopolamine induced avoidance test (performed in […]) for antagonistic activity after peroral administration of 5 mg/kg; assay type: functional, organism-based; parameters: dose 5 mg/kg
[20] = test system: Rattus norvegicus; assay: Retention time in Scopolamine induced avoidance test (performed in rat) for antagonistic activity after p.o. administration of 0.08 mg/kg; assay type: functional, organism-based; parameters: dose 0.08 mg/kg
[21] = test system: Mus musculus; assay: Acquisition time in (R)-PIA) induced avoidance test (performed in mice) for antagonistic activity after peroral administration of 5 mg/kg; assay type: functional; conditions: route oral
[22] = test system: Mus musculus; assay: Retention time in (R)-PIA) induced avoidance test (performed in mice) for antagonistic activity after peroral administration of 0.02 mg/kg
[23] = test system: Mus musculus; assay: Acquisition time in (R)-PIA) induced avoidance test (performed in mice) for antagonistic activity after peroral administration of 0.02 mg/kg; conditions: route oral
[24] = test system: Mus musculus; assay: Tested for locomotor activity after oral administration of 10 mg/kg for 120 min; assay type: functional
[25] = test system: Mus musculus; assay: Tested for locomotor activity after oral administration of […] for 120 min; assay type: functional
[26] = test system: Mus musculus; assay: Tested for locomotor activity after oral administration of 40 mg/kg for 120 min; assay type: functional
[27] = test system: Rattus norvegicus; assay: Acquisition time in Scopolamine induced avoidance test (performed in rat) for antagonistic activity after peroral administration of 80 mg/kg; assay type: functional; conditions: route oral
[28] = test system: Rattus norvegicus; assay: Retention time in Scopolamine induced avoidance test (performed in rat) for antagonistic activity after peroral administration of 80 mg/kg; assay type: functional, organism-based; parameters: dose 80 mg/kg
[29] = test system: Rattus norvegicus; assay: Retention time in Scopolamine induced avoidance test (performed in rat) for antagonistic activity after peroral administration of 5 mg/kg; assay type: functional, organism-based; parameters: dose 5 mg/kg

| Compound | Retention time [1] [s] | Retention time [2] [s] | Retention time [6] [s] | Retention time [7] [s] | Retention time [8] [s] | Acquisition time [14] [s] | Acquisition time [15] [s] | Acquisition time [17] [s] | Acquisition time [18] [s] | further results |
| --- | --- | --- | --- | --- | --- | --- | --- | --- | --- | --- |
| Cn1c(=O)c2[nH]cnc2n(C)c1=O | 104 | 85.4 | 31.2 | 10.9 | 14.6 |  |  |  |  | Retention time [3]: 113 s; Retention time [4]: 166 s; Retention time [5]: 45.8 s |
| CCCN1C(=O)N2C[C@H](CC)N=C2c2[nH]c(C34CC5CC(CC3C5)C4)nc21 | 431 | 464 | 81.3 | 20.3 | 19.6 | 15.1 | 7 | 10.9 | 14 | Acquisition time [9]: 13.4 s; Acquisition time [10]: 22.9 s; Acquisition time [11]: 14.3 s; Retention time [12]: 351 s; Retention time [13]: 489 s; Acquisition time [16]: 8 s; Retention time [19]: 13.3 s; Retention time [20]: 40.7 s; Acquisition time [21]: 12.9 s; Retention time [22]: 109 s; Acquisition time [23]: 14.3 s |
| Cn1c(=O)c2c(ncn2C)n(C)c1=O [CAFFEINE] |  |  | 14.9 | 11.9 |  | 14.6 | 33.8 | 18.3 | 11.5 | Locomotor activity [24]: 9386 Counts; Locomotor activity [25]: 6413 Counts; Locomotor activity [26]: 9693 Counts; Acquisition time [27]: 29.6 s; Retention time [28]: 7.6 s; Retention time [29]: 12.5 s |
